Measured values: ChEMBL document CHEMBL5543127, “Design, Synthesis, and Biological Evaluation of 2-Phenoxyalkylhydrazide Benzoxazole Derivatives as Quorum Sensing Inhibitors with Strong Antibiofilm Effect” (J Med Chem, 2024)
≈ marks a conversion by molar mass, not a printed value. Calls of active or inactive are those of the source. The calls are words filed in the database; no cut-off is given here.

Tests used:
[1] = system: Bacillus subtilis; test: Anti-microbial activity against Bacillus subtilis ATCC9372 incubated for 20 hrs By CLSI based micro-dilution method; type: functional
[2] = system: Staphylococcus aureus; test: Anti-microbial activity against methicillin-resistant Staphylococcus aureus ATCC43300 incubated for 20 hrs By CLSI based micro-dilution method; type: functional
[3] = system: Staphylococcus aureus; test: Anti-microbial activity against erythromycin-susceptible Staphylococcus aureus ATCC25923 incubated for 20 hrs By CLSI based micro-dilution method; type: functional
[4] = system: Bacillus pumilus; test: Anti-microbial activity against Bacillus pumilus CMCC63202 incubated for 20 hrs By CLSI based micro-dilution method; type: functional
[5] = system: Escherichia coli; test: Anti-microbial activity against penicillin-susceptible Escherichia coli ATCC25922 incubated for 20 hrs By CLSI based micro-dilution method; type: functional
[6] = system: Pseudomonas aeruginosa; test: Anti-microbial activity against penicillin-susceptible Pseudomonas aeruginosa 27853 incubated for 20 hrs By CLSI based micro-dilution method; type: functional
[7] = system: Pseudomonas aeruginosa; test: Anti-microbial activity against Pseudomonas aeruginosa PAO1 incubated for 20 hrs By CLSI based micro-dilution method; type: functional
[8] = system: Pseudomonas aeruginosa; test: Inhibition of protease in logarithmic growth phase Pseudomonas aeruginosa PAO1 assessed as inhibition rate at 102.4 microg/ml measured after 32 hrs; details: dose 102.4 µg/ml
[9] = system: Pseudomonas aeruginosa; test: Antibacterial activity against Pseudomonas aeruginosa PAO1 at logarithmic growth phase assessed as growth inhibition at 153.6 microg/ml measured upto 25 hrs by growth curve assay; type: functional, organism-based; details: dose 153.6 µg/ml
[10] = system: Pseudomonas aeruginosa; test: Antibacterial activity against Pseudomonas aeruginosa 27853 at logarithmic growth phase assessed as growth inhibition at 153.6 microg/ml measured upto 25 hrs by growth curve assay; type: functional, organism-based; details: dose 153.6 µg/ml
[11] = Inhibition of quorum sensing system in Pseudomonas aeruginosa PAO1 at logarithmic growth period assessed as inhibition of pyocyanin production at 102.4 microg/ml incubated for 18 hrs by pyocyanin inhibition assay; details: dose 102.4 µg/ml
[12] = system: Pseudomonas aeruginosa; test: Antibiofilm activity against logarithmic growth phase Pseudomonas aeruginosa PAO1 assessed as inhibition of biofilm formation at 16 microg/ml incubated for 20 hrs by crystal violet staining based analysis; type: functional; details: dose 16.0 µg/ml
[13] = system: Pseudomonas aeruginosa; test: Antibiofilm activity against logarithmic growth phase Pseudomonas aeruginosa PAO1 assessed as inhibition of biofilm formation at 32 microg/ml incubated for 20 hrs by crystal violet staining based analysis; type: functional
[14] = system: Pseudomonas aeruginosa; test: Induction of anti-bacterial effect in Pseudomonas aeruginosa PAO1 assessed as synergistic effect by measuring reduction in bacterial survival in presence of ciprofloxacin measured after 24 hrs incubation; type: functional, organism-based; details: dose 8-128 µg/ml
[15] = system: Pseudomonas aeruginosa; test: Induction of anti-bacterial effect in Pseudomonas aeruginosa PAO1 assessed as synergistic effect by measuring reduction in bacterial survival in presence of clarithromycin measured after 24 hrs incubation; type: functional, organism-based; details: dose 8-128 µg/ml
[16] = system: Pseudomonas aeruginosa; test: Anti-virulence activity against logarithmic growth phase Pseudomonas aeruginosa PAO1 assessed as inhibition of Rhamnolipid production at 102.4 microg/ml measured after 24 hrs; type: functional

SMILES: Cn1/c(=N/NC(=O)c2ccccc2F)sc2ccccc21
- MIC [1]: > 512 µg/mL
- MIC [2]: > 512 µg/mL
- MIC [3]: > 512 µg/mL
- MIC [4]: > 512 µg/mL
- MIC [5]: > 512 µg/mL
- MIC [6]: > 512 µg/mL
- MIC [7]: > 512 µg/mL
- inhibition [8]: > 20%
- Activity [9]: inactive
- Activity [10]: inactive

SMILES: Cn1/c(=N/NC(=O)c2cccc(Cl)c2)sc2ccccc21
- MIC [1]: > 512 µg/mL
- MIC [2]: > 512 µg/mL
- MIC [3]: > 512 µg/mL
- inhibition [11]: 40.1%
- inhibition [12]: Active
- inhibition at 32 µg/mL [13]: > 25.4%
- MIC [4]: > 512 µg/mL
- MIC [5]: > 512 µg/mL
- MIC [6]: > 512 µg/mL
- MIC [7]: > 512 µg/mL
- inhibition [8]: > 20%
- Activity [9]: inactive
- Activity [10]: inactive

SMILES: O=C(CCCCCOc1ccc(Cl)cc1)NNc1nc2ccccc2o1
- MIC [1]: 512 µg/mL (≈ 1370 µM)
- MIC [2]: 256 µg/mL (≈ 685 µM)
- MIC [3]: 256 µg/mL (≈ 685 µM)
- inhibition [11]: inactive
- MIC [4]: 256 µg/mL (≈ 685 µM)
- MIC [5]: > 512 µg/mL
- MIC [6]: 512 µg/mL (≈ 1370 µM)
- MIC [7]: > 512 µg/mL

SMILES: O=C(CCCCOc1ccc(F)cc1)NNc1nc2ccccc2s1
- MIC [1]: > 512 µg/mL
- MIC [2]: > 512 µg/mL
- MIC [3]: > 512 µg/mL
- inhibition [11]: Active
- MIC [4]: > 512 µg/mL
- MIC [5]: > 512 µg/mL
- MIC [6]: > 512 µg/mL
- MIC [7]: > 512 µg/mL
- Activity [9]: inactive
- Activity [10]: inactive

SMILES: COc1ccc(/C=N/Nc2nc3ccccc3o2)cc1OC
- MIC [1]: 512 µg/mL (≈ 1720 µM)
- MIC [2]: 256 µg/mL (≈ 861 µM)
- MIC [3]: 128 µg/mL (≈ 431 µM)
- inhibition [11]: 40.3%
- inhibition [12]: Active
- inhibition at 32 µg/mL [13]: > 25.4%
- MIC [4]: 256 µg/mL (≈ 861 µM)
- MIC [5]: > 512 µg/mL
- MIC [6]: > 512 µg/mL
- MIC [7]: > 512 µg/mL
- inhibition [8]: 21.9%
- Activity [9]: inactive
- Activity [10]: inactive

SMILES: Cc1cccc2sc(NNC(=O)CCCCOc3ccc(F)cc3)nc12
- MIC [1]: 512 µg/mL (≈ 1370 µM)
- MIC [2]: 512 µg/mL (≈ 1370 µM)
- MIC [3]: 512 µg/mL (≈ 1370 µM)
- inhibition [11]: Active
- Activity [14]: Dose-Dependent Effect
- inhibition [12]: Active
- inhibition at 32 µg/mL [13]: > 25.4%
- MIC [4]: 512 µg/mL (≈ 1370 µM)
- MIC [5]: > 512 µg/mL
- MIC [6]: > 512 µg/mL
- MIC [7]: > 512 µg/mL
- inhibition [8]: > 20%
- Activity [9]: inactive
- Activity [10]: inactive
- Activity [15]: Dose-Dependent Effect

SMILES: O=C1C=C(Br)/C(=C\Br)O1
- MIC [1]: 64 µg/mL (≈ 252 µM)
- MIC [2]: 128 µg/mL (≈ 504 µM)
- MIC [3]: 32 µg/mL (≈ 126 µM)
- inhibition at 102.4 µg/mL [16]: 44.9%
- MIC [4]: 256 µg/mL (≈ 1010 µM)
- MIC [5]: 256 µg/mL (≈ 1010 µM)
- MIC [6]: 256 µg/mL (≈ 1010 µM)
- MIC [7]: 128 µg/mL (≈ 504 µM)

SMILES: CCCCCCCCC(=O)N/N=c1\sc2ccccc2n1C
- MIC [1]: > 512 µg/mL
- MIC [2]: > 512 µg/mL
- MIC [3]: > 512 µg/mL
- inhibition [11]: Active
- MIC [4]: > 512 µg/mL
- MIC [5]: > 512 µg/mL
- MIC [6]: > 512 µg/mL
- MIC [7]: > 512 µg/mL

SMILES: O=C(CCCCCOc1cccc(F)c1)NNc1nc2ccccc2o1
- MIC [1]: 512 µg/mL (≈ 1430 µM)
- MIC [2]: > 512 µg/mL
- MIC [3]: 256 µg/mL (≈ 716 µM)
- inhibition [11]: inactive
- MIC [4]: > 512 µg/mL
- MIC [5]: > 512 µg/mL
- MIC [6]: 512 µg/mL (≈ 1430 µM)
- MIC [7]: > 512 µg/mL

SMILES: O=C(CCCOc1ccc(F)cc1)NNc1nc2ccccc2o1
- MIC [1]: 512 µg/mL (≈ 1550 µM)
- MIC [2]: 256 µg/mL (≈ 777 µM)
- MIC [3]: 256 µg/mL (≈ 777 µM)
- inhibition [11]: inactive
- MIC [4]: 256 µg/mL (≈ 777 µM)
- MIC [5]: > 512 µg/mL
- MIC [6]: 128 µg/mL (≈ 389 µM)
- MIC [7]: > 512 µg/mL
- inhibition [8]: 30%

SMILES: CCCCCCCC(=O)N/N=c1\sc2ccccc2n1C
- MIC [1]: > 512 µg/mL
- MIC [2]: > 512 µg/mL
- MIC [3]: > 512 µg/mL
- MIC [4]: > 512 µg/mL
- MIC [5]: > 512 µg/mL
- MIC [6]: > 512 µg/mL
- MIC [7]: > 512 µg/mL
- inhibition [8]: > 20%

SMILES: CCCC(=O)N/N=c1\sc2ccccc2n1C
- MIC [1]: > 512 µg/mL
- MIC [2]: > 512 µg/mL
- MIC [3]: 512 µg/mL (≈ 2050 µM)
- inhibition [11]: Active
- MIC [4]: > 512 µg/mL
- MIC [5]: > 512 µg/mL
- MIC [6]: > 512 µg/mL
- MIC [7]: > 512 µg/mL

SMILES: O=C(CCCOc1cccc(F)c1)NNc1nc2ccccc2o1
- MIC [1]: > 512 µg/mL
- MIC [2]: > 512 µg/mL
- MIC [3]: > 512 µg/mL
- inhibition [11]: inactive
- MIC [4]: > 512 µg/mL
- MIC [5]: > 512 µg/mL
- MIC [6]: 512 µg/mL (≈ 1550 µM)
- MIC [7]: > 512 µg/mL
- inhibition [8]: 30%

SMILES: Brc1ccccc1/C=N/Nc1nc2ccccc2o1
- MIC [1]: 512 µg/mL (≈ 1620 µM)
- MIC [2]: 256 µg/mL (≈ 810 µM)
- MIC [3]: 128 µg/mL (≈ 405 µM)
- inhibition [11]: inactive
- MIC [4]: > 512 µg/mL
- MIC [5]: > 512 µg/mL
- MIC [6]: > 512 µg/mL
- MIC [7]: > 512 µg/mL
